Columns and labels:
[1] = system: MCF-7 cells; assay: Alamar Blue cell viability assay, MCF-7; type: cell-based, human; settings: MCF-7 cell viability
Text: (§1) The goal herein was to assess the ability of imidazopyridine-tethered pyrazolines to inhibit cell viability in mammary carcinoma cells (using the Alamar Blue assay), since pyridine-fused pyrazoles were previously shown to inhibit cell viability in various breast cancer cells. […] The low chemical stability of thio-urea-based compounds may account for the inactivity of most thiourea-conjugated pyrazolines (excluding 4g) against TNBC cells.
(§2) MCF-7 cells were procured from Procell Life Science and Technology Co. LTD, Wuhan, China. Human breast cancer T47D, BT474, and SK-BR-3 cells were obtained from American Type Culture Collection (Washington, DC, NW, USA). Cells (2000) were cultured in MEM or Leibovitz’s L-15 medium enriched with 2% FBS and maintained in a humidified atmosphere of 5% CO2 at 37 °C. A stock solution of DMSO-dissolved compounds was prepared, and this solution was diluted with culture medium as required. MCF-7 Cells (4 × 10^3) were cultured in 96-well plates for 12 h and then treated for 72 h with compounds at concentrations of […]. Using Alamar Blue, the compounds were evaluated for their inhibitory effects
Figure 2 Inhibitory effect of compounds 3f (A), 3e (B), 4g (C), and 3g (D) on the viability of MCF-7 cells. MCF-7 cells were treated with various concentrations of 2-pyrazolines for 72 h and the viability of cells was analyzed by Alamar Blue assays. The results are presented as mean ± S.E.M. of triplicate determinations.

[2] = system: T47D cells; assay: Alamar Blue cell viability assay, T47D; type: cell-based, human; settings: T47D cell viability, Alamar Blue
Text: as §1, §2

[3] = system: BT-474 cells; assay: Alamar Blue cell viability assay, BT-474; type: cell-based, human; settings: BT-474 cell viability, Alamar Blue
Text: as §1, §2

[4] = system: SK-BR-3 cells; assay: Alamar Blue cell viability assay, SK-BR-3; type: cell-based, human; settings: SK-BR-3 cell viability
Text: as §1, §2

[5] = system: MCF-10A cells; assay: Alamar Blue cell viability assay, normal MCF-10A; type: cell-based; settings: normal MCF-10A cell viability
[6] = system: TNBC cells; assay: Effect against TNBC cells; type: cell-based; settings: in words
Text: as §1

CC(=O)N1N=C(c2c(C)nc3ccc(C)cn23)CC1c1cccc([N+](=O)[O-])c1 (centres unmarked) [Compound 2, 1-(3-(2,6-Dimethylimidazo[1,2-a]pyridin-3-yl)-5-(3-nitrophenyl)-4,5-dihydro-1H-pyrazol-1-yl)ethanone]
IC50 ([1]; Homo sapiens, MCF7, 72 h): > 100 µM | IC50 ([2]; Homo sapiens): > 100 µM | IC50 ([3]; Homo sapiens): 97.8 ± 1.76 µM | IC50 ([4]; Homo sapiens): > 100 µM | IC50 ([5]; Homo sapiens): > 100 µM | melting point: 166 to 168 °C

Cc1ccc2nc(C)c(C3=NN(C(=O)CN4CCC(=O)CC4)C(c4cccc([N+](=O)[O-])c4)C3)n2c1 (centres unmarked) [Compound 3a, 1-(2-(3-(2,6-Dimethylimidazo[1,2-a]pyridin-3-yl)-5-(3-nitrophenyl)-4,5-dihydro-1H-pyrazol-1-yl)-2-oxoethyl)piperidin-4-one]
IC50 ([1]; Homo sapiens, MCF7, 72 h): 22.8 ± 1.36 µM | IC50 ([2]; Homo sapiens): 23.3 ± 1.28 µM | IC50 ([3]; Homo sapiens): 4.11 ± 0.41 µM | IC50 ([4]; Homo sapiens): > 100 µM | IC50 ([5]; Homo sapiens): > 100 µM | melting point: 170 to 172 °C

Cc1ccc2nc(C)c(C3=NN(C(=O)CN4CCN(C(=O)OC(C)(C)C)CC4)C(c4cccc([N+](=O)[O-])c4)C3)n2c1 (centres unmarked) [Compound 3b, Tert-butyl-4-(2-(3-(2,6-dimethylimidazo[1,2-a]pyridin-3-yl)-5-(3-nitrophenyl)-4,5-dihydro-1H-pyrazol-1-yl)-2-oxoethyl)piperazine-1-carboxylate]
IC50 ([1]; Homo sapiens, MCF7, 72 h): 22.3 ± 1.35 µM | IC50 ([2]; Homo sapiens): 15.2 ± 1.13 µM | IC50 ([3]; Homo sapiens): 21.3 ± 1.32 µM | IC50 ([4]; Homo sapiens): 28.3 ± 1.34 µM | IC50 ([5]; Homo sapiens): > 100 µM | melting point: 166 to 168 °C

Cc1ccc2nc(C)c(C3=NN(C(=O)CN4CCNCC4)C(c4cccc([N+](=O)[O-])c4)C3)n2c1 (centres unmarked) [Compound 3c, 1-(3-(2,6-Dimethylimidazo[1,2-a]pyridin-3-yl)-5-(3-nitrophenyl)-4,5-dihydro-1H-pyrazol-1-yl)-2-(piperazin-1-yl)ethanone]
IC50 ([1]; Homo sapiens, MCF7, 72 h): 29.3 ± 1.47 µM | IC50 ([2]; Homo sapiens): 40 ± 1.49 µM | IC50 ([3]; Homo sapiens): 26.8 ± 1.37 µM | IC50 ([4]; Homo sapiens): 95.2 ± 1.79 µM | IC50 ([5]; Homo sapiens): > 100 µM | melting point: 176 to 178 °C

CC(=O)N1CCN(CC(=O)N2N=C(c3c(C)nc4ccc(C)cn34)CC2c2cccc([N+](=O)[O-])c2)CC1 (centres unmarked) [Compound 3d, 2-(4-Acetylpiperazin-1-yl)-1-(3-(2,6-dimethylimidazo[1,2-a]pyridin-3-yl)-5-(3-nitrophenyl)-4,5-dihydro-1H-pyrazol-1-yl)ethanone]
IC50 ([1]; Homo sapiens, MCF7, 72 h): 21 ± 1.32 µM | IC50 ([2]; Homo sapiens): > 100 µM | IC50 ([3]; Homo sapiens): 8.04 ± 0.47 µM | IC50 ([4]; Homo sapiens): 32.1 ± 1.46 µM | IC50 ([5]; Homo sapiens): > 100 µM | melting point: 208 to 210 °C

Cc1ccc2nc(C)c(C3=NN(C(=O)CN4CCN(c5ccc(Cl)cc5)CC4)C(c4cccc([N+](=O)[O-])c4)C3)n2c1 (centres unmarked) [Compound 3e, 2-(4-(4-Chlorophenyl)piperazin-1-yl)-1-(3-(2,6-dimethylimidazo[1,2-a]pyridin-3-yl)-5-(3-nitrophenyl)-4,5-dihydro-1H-pyrazol-1-yl)ethanone]
IC50 ([1]; Homo sapiens, MCF7, 72 h): 13.2 ± 1.12 µM | IC50 ([2]; Homo sapiens): 29.9 ± 1.05 µM | IC50 ([3]; Homo sapiens): 17.6 ± 0.87 µM | IC50 ([4]; Homo sapiens): 39.1 ± 1.46 µM | IC50 ([5]; Homo sapiens): 38.3 ± 1.44 µM | melting point: 180 to 182 °C

Cc1ccc2nc(C)c(C3=NN(C(=O)CN4CCN(c5ccc(Cl)cc5F)CC4)C(c4cccc([N+](=O)[O-])c4)C3)n2c1 (centres unmarked) [Compound 3g, 2-(4-(4-Chloro-2-fluorophenyl)piperazin-1-yl)-1-(3-(2,6-dimethylimidazo[1,2-a]pyridin-3-yl)-5-(3-nitrophenyl)-4,5-dihydro-1H-pyrazol-1-yl)ethanone]
IC50 ([1]; Homo sapiens, MCF7, 72 h): 19.4 ± 1.29 µM | IC50 ([2]; Homo sapiens): 86.5 ± 1.95 µM | IC50 ([3]; Homo sapiens): 63.2 ± 1.75 µM | IC50 ([4]; Homo sapiens): 100 ± 1.98 µM | IC50 ([5]; Homo sapiens): 8.69 ± 0.69 µM | melting point: 196 to 198 °C

Cc1ccc2nc(C)c(C3=NN(C(=O)CN4CCN(c5ccc(F)c(F)c5)CC4)C(c4cccc([N+](=O)[O-])c4)C3)n2c1 (centres unmarked) [Compound 3h, 2-(4-(3,4-Difluorophenyl)piperazin-1-yl)-1-(3-(2,6-dimethylimidazo[1,2-a]pyridin-3-yl)-5-(3-nitrophenyl)-4,5-dihydro-1H-pyrazol-1-yl)ethanone]
IC50 ([1]; Homo sapiens, MCF7, 72 h): 19.6 ± 1.29 µM | IC50 ([2]; Homo sapiens): 12.5 ± 1.01 µM | IC50 ([3]; Homo sapiens): 3.06 ± 0.32 µM | IC50 ([4]; Homo sapiens): 38.8 ± 1.42 µM | IC50 ([5]; Homo sapiens): 6.27 ± 0.26 µM | effect against TNBC cells [6]: significant effect | melting point: 192 to 194 °C

Cc1ccc2nc(C)c(C3=NN(C(=O)CN4CCN(c5ccccc5F)CC4)C(c4cccc([N+](=O)[O-])c4)C3)n2c1 (centres unmarked) [Compound 3i, 1-(3-(2,6-Dimethylimidazo[1,2-a]pyridin-3-yl)-5-(3-nitrophenyl)-4,5-dihydro-1H-pyrazol-1-yl)-2-(4-(2-fluorophenyl)piperazin-1-yl)ethanone]
IC50 ([1]; Homo sapiens, MCF7, 72 h): 63.7 ± 1.8 µM | IC50 ([2]; Homo sapiens): > 100 µM | IC50 ([3]; Homo sapiens): > 100 µM | IC50 ([4]; Homo sapiens): > 100 µM | IC50 ([5]; Homo sapiens): > 100 µM | melting point: 160 to 162 °C

Cc1ccc2nc(C)c(C3=NN(C(=S)Nc4ccccc4)C(c4cccc([N+](=O)[O-])c4)C3)n2c1 (centres unmarked) [Compound 4a, 3-(2,6-Dimethylimidazo[1,2-a]pyridin-3-yl)-5-(3-nitrophenyl)-N-phenyl-4,5-dihydro-1H-pyrazoline-1-carbothioamide]
IC50 ([1]; 72 h): 81.4 ± 1.91 µM | IC50 [2]: > 100 µM | IC50 [3]: > 100 µM | IC50 [4]: > 100 µM | IC50 [5]: > 100 µM

Cc1ccc2nc(C)c(C3=NN(C(=S)Nc4ccc([N+](=O)[O-])cc4)C(c4cccc([N+](=O)[O-])c4)C3)n2c1 (centres unmarked) [Compound 4b, 3-(2,6-Dimethylimidazo[1,2-a]pyridin-3-yl)-5-(3-nitrophenyl)-N-(4-nitrophenyl)-4,5-dihydro-1H-pyrazole-1-carbothioamide]
IC50 ([1]; Homo sapiens, MCF7, 72 h): 65.4 ± 1.82 µM | IC50 ([2]; Homo sapiens): 45.6 ± 1.43 µM | IC50 ([3]; Homo sapiens): 7.26 ± 0.54 µM | IC50 ([4]; Homo sapiens): 69 ± 1.41 µM | IC50 ([5]; Homo sapiens): > 100 µM | effect against TNBC cells [6]: significant effect | melting point: 230 to 232 °C

Cc1ccc2nc(C)c(C3=NN(C(=S)NC4CCCCC4)C(c4cccc([N+](=O)[O-])c4)C3)n2c1 (centres unmarked) [Compound 4c, N-Cyclohexyl-3-(2,6-dimethylimidazo[1,2-a]pyridin-3-yl)-5-(3-nitrophenyl)-4,5-dihydro-1H-pyrazoline-1-carbothioamide]
IC50 ([1]; 72 h): 46.1 ± 1.66 µM | IC50 [2]: > 100 µM | IC50 [3]: 52.8 ± 1.54 µM | IC50 [4]: > 100 µM | IC50 [5]: > 100 µM

Cc1ccc2nc(C)c(C3=NN(C(=S)Nc4cccc(Cl)c4)C(c4cccc([N+](=O)[O-])c4)C3)n2c1 (centres unmarked) [Compound 4e, N-(3-Chlorophenyl)-3-(2,6-dimethylimidazo[1,2-a]pyridin-3-yl)-5-(3-nitrophenyl)-4,5-dihydro-1H-pyrazoline-1-carbothioamide]
IC50 ([1]; 72 h): > 100 µM | IC50 [2]: > 100 µM | IC50 [3]: > 100 µM | IC50 [4]: > 100 µM | IC50 [5]: > 100 µM

Cc1ccc(NC(=S)N2N=C(c3c(C)nc4ccc(C)cn34)CC2c2cccc([N+](=O)[O-])c2)cc1 (centres unmarked) [Compound 4f, 3-(2,6-Dimethylimidazo[1,2-a]pyridin-3-yl)-5-(3-nitrophenyl)-N-(p-tolyl)-4,5-dihydro-1H-pyrazoline-1-carbothioamide]
IC50 ([1]; 72 h): 56.9 ± 1.39 µM | IC50 [2]: > 100 µM | IC50 [3]: > 100 µM | IC50 [4]: > 100 µM | IC50 [5]: > 100 µM

Cc1ccc2nc(C)c(C3=NN(C(=S)Nc4cc(C(F)(F)F)cc(C(F)(F)F)c4)[C@@H](c4cccc([N+](=O)[O-])c4)C3)n2c1 [Compound 4g, N-(3,5-Bis(trifluoromethyl)phenyl)-3-(2,6-dimethylimidazo[1,2-a]pyridin-3-yl)-5-(3-nitrophenyl)-4,5-dihydro-1H-pyrazoline-1-carbothioamide]
IC50 ([1]; Homo sapiens, MCF7, 72 h): 10.9 ± 1.01 µM | IC50 ([2]; Homo sapiens): > 100 µM | IC50 ([3]; Homo sapiens): > 100 µM | IC50 ([4]; Homo sapiens): > 100 µM | IC50 ([5]; Homo sapiens): > 100 µM | melting point: 230 to 232 °C

N-(4-Chlorophenyl)-3-(2,6-dimethylimidazo[1,2-a]pyridin-3-yl)-5-(3-nitrophenyl)-4,5-dihydro-1H-pyrazoline-1-carbothioamide [Compound 4d]
IC50 ([1]; 72 h): > 100 µM | IC50 [2]: > 100 µM | IC50 [3]: > 100 µM | IC50 [4]: > 100 µM | IC50 [5]: > 100 µM

N-Butyl-3-(2,6-dimethylimidazo[1,2-a]pyridin-3-yl)-5-(3-nitrophenyl)-4,5-dihydro-1H-pyrazoline-1-carbothioamide [Compound 4h]
IC50 ([1]; 72 h): > 100 µM | IC50 [2]: 54.4 ± 1.68 µM | IC50 [3]: > 100 µM | IC50 [4]: > 100 µM | IC50 [5]: 90.6 ± 1.98 µM
